Measured values taken from patent publication US8470340B2, “Peptides presenting an epitope of a domain of factor H binding protein and methods of use” (priority 2008, dated 2013).
Residue numbers refer to the chain shown, from its start. In names and notes the source's numbering stands. Ends that are not written are not given here.

What was measured:
JAR4 mAb [1] = assay: […] of phage library clones; type: binding, murine; settings: JAR4 coated at 1 μg/ml, cleared phage supernatant, absorbance at 450 nm
Description: […]—Aliquots in 96 wells ELISA plates 100 μl per well of JAR4 mAb were diluted (1 μg/ml) in 50 mM NaHC03, 0.02% (w/v) NaN3, pH 9.6 and incubated 3 hrs at 37° C. or overnight at 4° C. After washing 8 times with 1×PBS containing 0.05% (v/v) TWEEN 20), 200 μl of blocking buffer (PBS, 0.05% TWEEN 20, 5% non-fat dry milk) was added and incubated for 1 hr at 37° C. The wash was discarded and a mixture of 100 μl cleared phage supernatant and 100 μl blocking buffer was added, to the plate and incubated for 3 hrs at 37° C. or overnight at 4° C. After washing 8 times with 1×PBS containing 0.05% (v/v) TWEEN 20), and anti-M13 peroxidase conjugate antibody (Amersham Biosciences, Buckinghamshire, UK) was added at a dilution of […] in blocking buffer (100 μl/well) and incubated for 1 h at 37° C. After further washing, antibody binding was detected by adding TMB substrate, incubated for 45 min at room temperature and stopped with […] of 1 M H2SO4 and reading absorbance at 450 nm.
(§1) In order to identify peptides useful in eliciting antibodies having the eptitope-binding properties of the JAR 4 mAb, libraries of filamentous bacteriophage containing random peptides (9-mers and 12-mers) fused to protein VIII were screened using the JAR 4 mAb as described above. Phage eluted in the final step were used to infect host bacteria, from which the phagemids were collected and the relevant DNA sequence amplified by PCR and sequenced to identify the peptides that interacted with JAR 4 mAb. The relative binding affinity of the peptide of the isolated phage was determined by both […] and […], as described above.

JAR4 mAb [2] = assay: […] of phage library clones; type: binding, murine; settings: phage captured by anti-pIII mAb, JAR4 detection, absorbance at 405 nm
Description: —Ninety-six wells plates were coated o.n. at 4° C. with 100 μl per well of a rat anti-pili (coat protein III) monoclonal antibody (concentration 1 mg/ml) in 50 mM NaHC03, 0.02% (w/v) NaN3, pH 9.6, and washed 8 times with TBST (50 mM Tris/Cl, 150 mM NaCl, pH 7.5, 0.05% (v/v) TWEEN 20). One hundred μl per well of cleared phage supernatant was added. After washing as above and incubation with antibody (concentration 1 mg/ml) in blocking buffer (5% (w/v) non-fat dry milk, 0.05% TWEEN 20 in PBS), and washing, the binding of the monoclonal antibody was detected by alkaline-phosphatase conjugated goat anti-mouse IgG antibody (Sigma, dilution 1:5000) using p-nitrophenyl phosphate substrate tablets (Sigma).
as §1

JAR 4 [3] = assay: ELISA binding of native fHbp sequence peptides; set-up: species or system murine; settings: peptides from the native v.1 fHbp sequence
anti-fHbp JAR 5 = assay: Direct binding ELISA of mAb to KLH-conjugated peptides; set-up: species or system murine; settings: for mAb Reactivity JAR 5: KLH-conjugated peptide coated at 2 μg/ml; for binding to control mAb anti-fHbp JAR 5: KLH-conjugated peptides, in words
Description: (§2) The ability of anti-fHbp mAb JAR 4 to bind to the KLH-conjugated peptides was determined by a direct binding ELISA. ELISA plates were coated with 100 μl per well of a 2 μg/ml (peptide concentration) solution at 4° C. overnight. The following morning, the plates were washed and then blocked with PBS containing 1% BSA. The plates were washed and incubated with serial dilutions of mAb JAR 4 or, as a control, anti-fHbp JAR 5 or anti-PorA P1.2 mAb. After incubation (1 hour at room temperature), the plates were washed and incubated with anti-mouse IgG conjugated either with alkaline phosphatase or IRDye 800CW (1:1000). The alkaline phosphatase was detected at 420 nm wavelength after 30 min incubation with phosphatase substrate (1 mg/ml) and the IRDye was detected at 800 nm wavelength.

anti-fHbp mAb JAR 4 = assay: as above; set-up: species or system murine; settings: for mAb Reactivity JAR 4: KLH-conjugated peptide coated at 2 μg/ml; for reactivity with JAR 4 by ELISA: KLH-conjugated peptides, in words
Description: as §2

anti-PorA P1.2 mAb = assay: as above; settings: KLH-conjugated peptide coated at 2 μg/ml
Description: as §2

JAR 4 [4] = assay: ELISA binding of mAb to site-specific mutant recombinant v.1 fHbp; set-up: species or system murine; settings: for decrease in JAR 4-reactivity compared with wild-type recombinant fHbp: v.1 fHbp (gene from MC58) alanine mutants
Description: Site-specific mutagenesis was used to test the role of amino acid residues involved in the JAR 4 anti-fHbp mAb epitope. Mutagenesis was performed using the QuikChange II kit (Stratagene) using 10 ng of plasmid template and the manufacturer's protocols. For testing residues putatively involved in mAb epitopes, mutagenesis reactions were performed on pET21-based plasmids encoding a wild-type fHbp gene. Site-specific mutagenesis was used to introduce the H26A and K27A substitution into the pET21 plasmid encoding v.1 fHbp from MC58. Mutant fHbp genes were confirmed by DNA sequencing as described for the wild-type plasmids, above.
Site-directed mutagenesis of residues 25, 26 and 27 was performed, each of which was individually changed to alanine in fHbp from the v.1 group (gene from MC58). These mutants were created using the non-signal containing sequence from strain MC58 (MVAAD . . . GLAAKQ) (SEQ ID NO:73), and are referred to as D25A, H26A and K27A, respectively. The amino acid sequences of the portions of the A domains of these mutants is provided in FIG. 7, Panel A. Results of the binding experiment between mutated fHbp and the various JAR mAbs are shown in FIG. 6.

1 (HDHKLEGTE) [Clone 1]
PHAGELISA (JAR4 mAb [1]): +++ (O.D. from 1 to 2)
SEPHELISA (JAR4 mAb [2]): ++++ (O.D. from 2 to 3.5)

2 (CGGVYDDKTGCA) [Clone 2]
PHAGELISA (JAR4 mAb [1]): ++ (O.D. from 0.5 to 1)
SEPHELISA (JAR4 mAb [2]): ++++ (O.D. from 2 to 3.5)

3 (HDHKTQLDP) [Clone 3]
PHAGELISA (JAR4 mAb [1]): ++++ (O.D. from 2 to 3.5)
SEPHELISA (JAR4 mAb [2]): ++++ (O.D. from 2 to 3.5)

4 (WTLAVFDHKAQT) [Clone 4]
PHAGELISA (JAR4 mAb [1]): +++ (O.D. from 1 to 2)
SEPHELISA (JAR4 mAb [2]): +++ (O.D. from 1 to 2)

5 (GCMGYDHRSGCV) [Clone 5]
PHAGELISA (JAR4 mAb [1]): + (O.D. from 0.15 to 0.5)
SEPHELISA (JAR4 mAb [2]): ++ (O.D. from 0.5 to 1)

6 (FHDHKTANQ) [Clone 6]
PHAGELISA (JAR4 mAb [1]): + (O.D. from 0.15 to 0.5)
SEPHELISA (JAR4 mAb [2]): ++ (O.D. from 0.5 to 1)

7 (WRWCGFERCPEG) [Clone 7]
PHAGELISA (JAR4 mAb [1]): + (O.D. from 0.15 to 0.5)
SEPHELISA (JAR4 mAb [2]): ++ (O.D. from 0.5 to 1)

8 (HDHRIWPLDVTA) [Clone 8]
PHAGELISA (JAR4 mAb [1]): + (O.D. from 0.15 to 0.5)
SEPHELISA (JAR4 mAb [2]): ++ (O.D. from 0.5 to 1)

9 (NDERQMSDWYRA) [Clone 9]
PHAGELISA (JAR4 mAb [1]): + (O.D. from 0.15 to 0.5)
SEPHELISA (JAR4 mAb [2]): + (O.D. from 0.15 to 0.5)

10 (HVHRGSQGGQRQ) [Clone 10]
PHAGELISA (JAR4 mAb [1]): + (O.D. from 0.15 to 0.5)
SEPHELISA (JAR4 mAb [2]): + (O.D. from 0.15 to 0.5)

11 (LEWCGFSRCEVG) [Clone 11]
PHAGELISA (JAR4 mAb [1]): + (O.D. from 0.15 to 0.5)
SEPHELISA (JAR4 mAb [2]): + (O.D. from 0.15 to 0.5)

12 (KDHRHMLWPEES) [Clone 12]
PHAGELISA (JAR4 mAb [1]): + (O.D. from 0.15 to 0.5)
SEPHELISA (JAR4 mAb [2]): + (O.D. from 0.15 to 0.5)

13 (LCQERLSQRCGV) [Clone 13]
PHAGELISA (JAR4 mAb [1]): + (O.D. from 0.15 to 0.5)
SEPHELISA (JAR4 mAb [2]): + (O.D. from 0.15 to 0.5)

14 (WVLCGQGCGGTA) [Clone 14]
PHAGELISA (JAR4 mAb [1]): + (O.D. from 0.15 to 0.5)
SEPHELISA (JAR4 mAb [2]): + (O.D. from 0.15 to 0.5)

15 (RCQVQVMVLCAL) [Clone 15]
PHAGELISA (JAR4 mAb [1]): + (O.D. from 0.15 to 0.5)
SEPHELISA (JAR4 mAb [2]): + (O.D. from 0.15 to 0.5)

16 (HDHKHGFQEPAS) [Clone 16]
PHAGELISA (JAR4 mAb [1]): + (O.D. from 0.15 to 0.5)
SEPHELISA (JAR4 mAb [2]): + (O.D. from 0.15 to 0.5)

17 (SDWGWGGRAEQH) [Clone 17]
PHAGELISA (JAR4 mAb [1]): + (O.D. from 0.15 to 0.5)
SEPHELISA (JAR4 mAb [2]): + (O.D. from 0.15 to 0.5)

18 (VGWCGFERCSSA) [Clone 18]
PHAGELISA (JAR4 mAb [1]): + (O.D. from 0.15 to 0.5)
SEPHELISA (JAR4 mAb [2]): + (O.D. from 0.15 to 0.5)

ADALTAPLDHKDK [SEQ ID NO: 32]
binding to JAR 4 by ELISA (JAR 4 [3]): no detectable binding

AEGEFHDHKLEGTEDPAKC (also: conjugated to KLH) [JAR 4 Phage 3, synthetic peptide conjugated to keyhole limpet hemocyanin (KLH)]
mAb Reactivity JAR 5 (anti-fHbp JAR 5): − (no detectable binding at 50 μg/ml)
binding to control mAb anti-fHbp JAR 5 (anti-fHbp JAR 5): no detectable binding
mAb Reactivity JAR 4 (anti-fHbp mAb JAR 4): + (50% of maximal binding at 1-10 μg/ml)
reactivity with JAR 4 by ELISA (anti-fHbp mAb JAR 4): reacted

AEGEFHDHKTQLDPDPAKC (also: conjugated to KLH) [JAR 4 Phage 1, synthetic peptide conjugated to keyhole limpet hemocyanin (KLH)]
mAb Reactivity JAR 5 (anti-fHbp JAR 5): − (no detectable binding at 50 μg/ml)
binding to control mAb anti-fHbp JAR 5 (anti-fHbp JAR 5): no detectable binding
mAb Reactivity JAR 4 (anti-fHbp mAb JAR 4): ++ (50% of maximal binding at < 1 μg/ml)
reactivity with JAR 4 by ELISA (anti-fHbp mAb JAR 4): reacted
mAb Reactivity P1.2 (anti-PorA P1.2 mAb): − (no detectable binding at 50 μg/ml)

AEGEFWTLAVFDHKAQTGDPAKC (also: conjugated to KLH) [JAR 4 Phage 2, synthetic peptide conjugated to keyhole limpet hemocyanin (KLH)]
mAb Reactivity JAR 4 (anti-fHbp mAb JAR 4): ++ (50% of maximal binding at < 1 μg/ml)
reactivity with JAR 4 by ELISA (anti-fHbp mAb JAR 4): reacted
mAb Reactivity P1.2 (anti-PorA P1.2 mAb): − (no detectable binding at 50 μg/ml)

ALTAPLDHKDKGLQSDPAKC (also: conjugated to KLH) [JAR 4 Native, reference compound]
mAb Reactivity JAR 5 (anti-fHbp JAR 5): − (no detectable binding at 50 μg/ml)
mAb Reactivity JAR 4 (anti-fHbp mAb JAR 4): − (no detectable binding at 50 μg/ml)

AQAFQTPVHSDPAKC (also: conjugated to KLH) [GNA 33, control peptide, a mimetic of PorA P1.2, conjugated to KLH, reference compound]
mAb Reactivity JAR 4 (anti-fHbp mAb JAR 4): − (no detectable binding at 50 μg/ml)
mAb Reactivity P1.2 (anti-PorA P1.2 mAb): + (50% of maximal binding at 1-10 μg/ml)

DHKDKGLQSLTLD [SEQ ID NO: 33]
binding to JAR 4 by ELISA (JAR 4 [3]): no detectable binding

HFVQQTPQSQDPAKC (also: conjugated to KLH) [PorA P1.2, control peptide derived from loop 4 of PorA VR2, strain 2996, conjugated to KLH, reference compound]
mAb Reactivity JAR 4 (anti-fHbp mAb JAR 4): − (no detectable binding at 50 μg/ml)
mAb Reactivity P1.2 (anti-PorA P1.2 mAb): + (50% of maximal binding at 1-10 μg/ml)

TKDDPLKQHLALSAGDPAKC (also: conjugated to KLH) [JAR 4 Scrambled, scrambled native fHbp peptide, negative control, conjugated to KLH, reference compound]
mAb Reactivity JAR 5 (anti-fHbp JAR 5): − (no detectable binding at 50 μg/ml)
mAb Reactivity JAR 4 (anti-fHbp mAb JAR 4): − (no detectable binding at 50 μg/ml)
mAb Reactivity P1.2 (anti-PorA P1.2 mAb): − (no detectable binding at 50 μg/ml)

B1: D25A: recombinant v.1 fHbp (gene from MC58) with residue 25 changed to alanine (protein)
chain: CSSGGGGVAADIGAGLADALTAPLAHKDKGLQSLTLDQSVRKNEKLKLAAQGAEKTYGNGDSLNTGKLKNDKVSRFDFIRQIEVDGQLITLESGEFQVYKQSHSALTAFQTEQIQDSEHSGKMVAKRQFRIGDIAGEHTSFDKLPEGGRATYRGTAFGSDDAGGKLTYTIDFAAKQGNGKIEHLKSPELNVDLAAADIKPDGKRHAVISGSVLYNQAEKGSYSLGIFGGKAQEVAGSAEVKTVNGIRHIGLAAKQHHHHHH
decrease in JAR 4-reactivity compared with wild-type recombinant fHbp (JAR 4 [4]): approximately 1000 fold

B2: K27A: recombinant v.1 fHbp (gene from MC58) with residue 27 changed to alanine (protein)
chain: B1 chain with A25D, K27A
JAR 4 binding compared with wild-type recombinant fHbp (JAR 4 [4]; v.1 fHbp (gene from MC58) alanine mutant): eliminated detectable JAR 4 binding

B3: H26A: recombinant v.1 fHbp (gene from MC58) with residue 26 changed to alanine (protein)
chain: B1 chain with A25D, H26A
decrease in JAR 4-reactivity compared with wild-type recombinant fHbp (JAR 4 [4]): approximately 10 fold
